Measurements published in ChEMBL document CHEMBL2010665, “Novel, druglike 1,7-disubstituted 2,3,4,5-tetrahydro-1H-benzo[b]azepine-based selective inhibitors of human neuronal nitric oxide synthase (nNOS)” (Bioorg Med Chem Lett, 2012).

What was measured:
Nitric oxide synthase 1 = Nitric oxide synthase 1 (Homo sapiens, UniProt P29475); assay: Inhibition of human recombinant nNOS expressed in baculovirus infected insect sf9 cells assessed as conversion of [3H]-L-arginine into [3H]-L-citrulline by radiometric method
Sequence of Nitric oxide synthase 1 (P29475 whole entry): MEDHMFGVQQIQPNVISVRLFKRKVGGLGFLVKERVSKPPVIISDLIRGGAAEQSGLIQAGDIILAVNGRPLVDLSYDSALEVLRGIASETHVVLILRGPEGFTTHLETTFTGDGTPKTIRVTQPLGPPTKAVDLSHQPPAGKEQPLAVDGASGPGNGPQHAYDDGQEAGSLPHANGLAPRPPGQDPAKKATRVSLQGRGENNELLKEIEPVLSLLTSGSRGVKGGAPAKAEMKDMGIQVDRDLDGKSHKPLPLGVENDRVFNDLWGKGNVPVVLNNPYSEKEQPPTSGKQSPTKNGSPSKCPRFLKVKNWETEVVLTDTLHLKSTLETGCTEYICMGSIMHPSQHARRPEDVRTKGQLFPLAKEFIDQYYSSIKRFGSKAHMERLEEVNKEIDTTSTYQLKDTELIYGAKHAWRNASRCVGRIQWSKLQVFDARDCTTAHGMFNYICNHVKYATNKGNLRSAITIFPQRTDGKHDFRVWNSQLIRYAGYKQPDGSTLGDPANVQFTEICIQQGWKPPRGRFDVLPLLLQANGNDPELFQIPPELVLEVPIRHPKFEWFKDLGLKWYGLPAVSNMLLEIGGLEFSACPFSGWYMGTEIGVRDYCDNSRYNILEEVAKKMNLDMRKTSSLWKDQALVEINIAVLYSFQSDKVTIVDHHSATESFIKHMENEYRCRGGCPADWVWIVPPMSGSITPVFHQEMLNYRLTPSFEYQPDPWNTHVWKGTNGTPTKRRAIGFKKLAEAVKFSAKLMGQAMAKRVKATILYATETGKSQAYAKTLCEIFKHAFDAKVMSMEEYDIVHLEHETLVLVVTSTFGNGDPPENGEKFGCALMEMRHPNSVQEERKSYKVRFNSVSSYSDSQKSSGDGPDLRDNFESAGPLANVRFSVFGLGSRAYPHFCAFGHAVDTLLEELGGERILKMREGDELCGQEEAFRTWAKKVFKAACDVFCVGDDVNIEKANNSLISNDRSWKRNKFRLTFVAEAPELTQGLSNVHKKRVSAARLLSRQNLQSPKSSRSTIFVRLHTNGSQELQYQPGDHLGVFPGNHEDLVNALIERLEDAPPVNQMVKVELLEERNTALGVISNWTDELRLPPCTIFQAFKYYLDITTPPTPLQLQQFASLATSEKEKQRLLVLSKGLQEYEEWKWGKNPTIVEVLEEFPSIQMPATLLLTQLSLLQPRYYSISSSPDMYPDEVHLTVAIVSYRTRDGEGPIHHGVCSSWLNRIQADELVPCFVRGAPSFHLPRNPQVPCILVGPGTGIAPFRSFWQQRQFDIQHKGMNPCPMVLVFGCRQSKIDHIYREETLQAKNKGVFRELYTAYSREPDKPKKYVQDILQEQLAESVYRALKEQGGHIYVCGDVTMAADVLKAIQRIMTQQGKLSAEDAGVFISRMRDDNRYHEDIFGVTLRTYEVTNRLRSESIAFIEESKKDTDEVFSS

[1] = molecular target: Nitric oxide synthase, inducible (Homo sapiens, UniProt P35228); assay: Inhibition of human recombinant iNOS expressed in baculovirus infected insect sf9 cells assessed as conversion of [3H]-L-arginine into [3H]-L-citrulline by radiometric method
Sequence of Nitric oxide synthase, inducible (Homo sapiens, UniProt P35228) (P35228 whole entry): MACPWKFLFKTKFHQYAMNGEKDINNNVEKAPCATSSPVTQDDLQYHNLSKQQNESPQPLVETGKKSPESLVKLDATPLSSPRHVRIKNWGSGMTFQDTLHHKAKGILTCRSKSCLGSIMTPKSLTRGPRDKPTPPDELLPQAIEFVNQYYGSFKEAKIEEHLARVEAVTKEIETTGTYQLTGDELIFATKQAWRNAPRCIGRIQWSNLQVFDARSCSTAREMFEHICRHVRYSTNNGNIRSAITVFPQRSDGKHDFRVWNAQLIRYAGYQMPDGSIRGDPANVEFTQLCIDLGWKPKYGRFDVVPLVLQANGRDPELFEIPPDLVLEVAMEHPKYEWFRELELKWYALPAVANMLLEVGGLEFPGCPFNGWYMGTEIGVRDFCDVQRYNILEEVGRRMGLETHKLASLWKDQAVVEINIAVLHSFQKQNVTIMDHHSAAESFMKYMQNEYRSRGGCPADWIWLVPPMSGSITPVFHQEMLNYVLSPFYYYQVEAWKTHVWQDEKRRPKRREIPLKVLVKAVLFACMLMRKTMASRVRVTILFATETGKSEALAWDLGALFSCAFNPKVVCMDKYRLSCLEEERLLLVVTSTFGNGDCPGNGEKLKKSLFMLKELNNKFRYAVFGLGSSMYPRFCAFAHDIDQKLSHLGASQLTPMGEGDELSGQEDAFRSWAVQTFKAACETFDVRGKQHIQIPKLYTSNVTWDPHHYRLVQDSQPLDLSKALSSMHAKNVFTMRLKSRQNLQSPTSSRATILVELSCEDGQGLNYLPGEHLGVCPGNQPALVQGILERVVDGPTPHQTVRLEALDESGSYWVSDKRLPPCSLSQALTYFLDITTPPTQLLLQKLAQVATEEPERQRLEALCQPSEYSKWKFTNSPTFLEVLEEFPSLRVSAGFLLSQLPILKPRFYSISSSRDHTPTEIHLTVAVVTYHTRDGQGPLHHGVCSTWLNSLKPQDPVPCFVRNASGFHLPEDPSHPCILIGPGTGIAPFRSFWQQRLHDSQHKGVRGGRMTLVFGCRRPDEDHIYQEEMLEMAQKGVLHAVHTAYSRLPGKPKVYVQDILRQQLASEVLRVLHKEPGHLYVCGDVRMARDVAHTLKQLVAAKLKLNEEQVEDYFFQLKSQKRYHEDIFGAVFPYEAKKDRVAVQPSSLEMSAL

Nitric oxide synthase 3 = molecular target: T1, Nitric oxide synthase 3 (Homo sapiens, UniProt P29474); assay: Inhibition of human recombinant eNOS expressed in baculovirus infected insect sf9 cells assessed as conversion of [3H]-L-arginine into [3H]-L-citrulline by radiometric method
T1 sequence (P29474 whole entry): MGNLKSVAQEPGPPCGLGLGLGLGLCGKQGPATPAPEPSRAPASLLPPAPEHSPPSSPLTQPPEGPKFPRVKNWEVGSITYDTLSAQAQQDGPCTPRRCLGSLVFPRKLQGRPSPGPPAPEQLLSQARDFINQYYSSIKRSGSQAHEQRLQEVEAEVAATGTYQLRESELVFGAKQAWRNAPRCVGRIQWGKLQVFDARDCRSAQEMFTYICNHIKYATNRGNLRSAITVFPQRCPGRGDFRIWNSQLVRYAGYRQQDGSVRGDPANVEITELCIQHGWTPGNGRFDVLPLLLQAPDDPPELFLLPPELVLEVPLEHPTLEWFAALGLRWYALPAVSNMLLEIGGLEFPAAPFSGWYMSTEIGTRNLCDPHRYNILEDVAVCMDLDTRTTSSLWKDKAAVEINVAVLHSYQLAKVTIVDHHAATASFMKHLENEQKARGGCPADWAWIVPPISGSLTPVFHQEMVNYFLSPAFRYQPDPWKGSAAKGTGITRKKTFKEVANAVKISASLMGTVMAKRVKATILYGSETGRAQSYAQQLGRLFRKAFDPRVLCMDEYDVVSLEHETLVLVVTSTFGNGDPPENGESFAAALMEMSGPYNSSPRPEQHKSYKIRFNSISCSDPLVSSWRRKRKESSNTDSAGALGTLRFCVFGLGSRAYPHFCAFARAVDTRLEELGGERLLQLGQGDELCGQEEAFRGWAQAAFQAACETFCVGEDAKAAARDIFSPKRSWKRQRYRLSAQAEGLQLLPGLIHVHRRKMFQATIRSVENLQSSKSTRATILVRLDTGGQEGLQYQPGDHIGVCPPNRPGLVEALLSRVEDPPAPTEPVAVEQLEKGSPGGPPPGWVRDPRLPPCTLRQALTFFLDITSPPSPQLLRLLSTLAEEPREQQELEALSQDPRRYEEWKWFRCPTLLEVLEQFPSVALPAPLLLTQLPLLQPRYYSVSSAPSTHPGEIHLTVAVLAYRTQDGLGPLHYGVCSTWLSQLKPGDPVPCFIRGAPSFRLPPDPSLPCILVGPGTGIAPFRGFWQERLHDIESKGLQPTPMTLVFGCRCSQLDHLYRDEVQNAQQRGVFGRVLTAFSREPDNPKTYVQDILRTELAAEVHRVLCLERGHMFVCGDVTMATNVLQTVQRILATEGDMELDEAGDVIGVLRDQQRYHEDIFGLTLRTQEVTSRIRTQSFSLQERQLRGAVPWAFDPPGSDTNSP

[2] = molecular target: Voltage-gated inwardly rectifying potassium channel KCNH2 (Homo sapiens, UniProt Q12809); assay: Inhibition of human Erg expressed in HEK293 cells up to 30 uM by patch clamp assay; type: cell-based
Sequence of Voltage-gated inwardly rectifying potassium channel KCNH2 (Q12809 whole entry): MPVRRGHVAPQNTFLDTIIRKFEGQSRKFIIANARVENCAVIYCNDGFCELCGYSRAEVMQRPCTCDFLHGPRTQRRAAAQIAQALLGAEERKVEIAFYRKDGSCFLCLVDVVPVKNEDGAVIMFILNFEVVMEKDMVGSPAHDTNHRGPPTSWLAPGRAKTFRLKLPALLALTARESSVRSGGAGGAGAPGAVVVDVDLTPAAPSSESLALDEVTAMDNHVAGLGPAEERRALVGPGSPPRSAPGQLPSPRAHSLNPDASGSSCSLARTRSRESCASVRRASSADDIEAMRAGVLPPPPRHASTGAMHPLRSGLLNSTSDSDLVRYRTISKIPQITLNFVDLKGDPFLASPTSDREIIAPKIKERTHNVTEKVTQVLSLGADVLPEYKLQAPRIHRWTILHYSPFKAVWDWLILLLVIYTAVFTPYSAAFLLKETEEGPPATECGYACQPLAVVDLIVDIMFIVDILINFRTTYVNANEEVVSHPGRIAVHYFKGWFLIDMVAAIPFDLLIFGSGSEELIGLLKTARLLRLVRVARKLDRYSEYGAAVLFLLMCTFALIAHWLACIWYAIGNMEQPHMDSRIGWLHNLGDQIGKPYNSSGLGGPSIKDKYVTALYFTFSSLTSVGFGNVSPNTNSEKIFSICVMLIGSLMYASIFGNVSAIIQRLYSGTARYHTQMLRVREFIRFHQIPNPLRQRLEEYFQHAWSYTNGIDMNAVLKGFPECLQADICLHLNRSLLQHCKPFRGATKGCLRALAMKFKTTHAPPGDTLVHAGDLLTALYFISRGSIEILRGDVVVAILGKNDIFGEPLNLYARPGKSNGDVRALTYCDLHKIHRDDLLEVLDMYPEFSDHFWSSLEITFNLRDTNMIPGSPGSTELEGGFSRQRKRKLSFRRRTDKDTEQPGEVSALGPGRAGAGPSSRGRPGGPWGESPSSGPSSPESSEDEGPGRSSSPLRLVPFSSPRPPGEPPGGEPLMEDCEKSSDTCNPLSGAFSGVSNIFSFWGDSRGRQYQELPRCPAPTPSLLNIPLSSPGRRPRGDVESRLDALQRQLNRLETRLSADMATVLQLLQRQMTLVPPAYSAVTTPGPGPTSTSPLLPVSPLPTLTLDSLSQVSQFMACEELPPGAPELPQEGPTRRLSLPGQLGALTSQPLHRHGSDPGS

[3] = molecular target: Nitric oxide synthase, inducible (Rattus norvegicus, UniProt Q06518); assay: Inhibition of rat iNOS
Sequence of Nitric oxide synthase, inducible (Rattus norvegicus, UniProt Q06518) (Q06518 whole entry): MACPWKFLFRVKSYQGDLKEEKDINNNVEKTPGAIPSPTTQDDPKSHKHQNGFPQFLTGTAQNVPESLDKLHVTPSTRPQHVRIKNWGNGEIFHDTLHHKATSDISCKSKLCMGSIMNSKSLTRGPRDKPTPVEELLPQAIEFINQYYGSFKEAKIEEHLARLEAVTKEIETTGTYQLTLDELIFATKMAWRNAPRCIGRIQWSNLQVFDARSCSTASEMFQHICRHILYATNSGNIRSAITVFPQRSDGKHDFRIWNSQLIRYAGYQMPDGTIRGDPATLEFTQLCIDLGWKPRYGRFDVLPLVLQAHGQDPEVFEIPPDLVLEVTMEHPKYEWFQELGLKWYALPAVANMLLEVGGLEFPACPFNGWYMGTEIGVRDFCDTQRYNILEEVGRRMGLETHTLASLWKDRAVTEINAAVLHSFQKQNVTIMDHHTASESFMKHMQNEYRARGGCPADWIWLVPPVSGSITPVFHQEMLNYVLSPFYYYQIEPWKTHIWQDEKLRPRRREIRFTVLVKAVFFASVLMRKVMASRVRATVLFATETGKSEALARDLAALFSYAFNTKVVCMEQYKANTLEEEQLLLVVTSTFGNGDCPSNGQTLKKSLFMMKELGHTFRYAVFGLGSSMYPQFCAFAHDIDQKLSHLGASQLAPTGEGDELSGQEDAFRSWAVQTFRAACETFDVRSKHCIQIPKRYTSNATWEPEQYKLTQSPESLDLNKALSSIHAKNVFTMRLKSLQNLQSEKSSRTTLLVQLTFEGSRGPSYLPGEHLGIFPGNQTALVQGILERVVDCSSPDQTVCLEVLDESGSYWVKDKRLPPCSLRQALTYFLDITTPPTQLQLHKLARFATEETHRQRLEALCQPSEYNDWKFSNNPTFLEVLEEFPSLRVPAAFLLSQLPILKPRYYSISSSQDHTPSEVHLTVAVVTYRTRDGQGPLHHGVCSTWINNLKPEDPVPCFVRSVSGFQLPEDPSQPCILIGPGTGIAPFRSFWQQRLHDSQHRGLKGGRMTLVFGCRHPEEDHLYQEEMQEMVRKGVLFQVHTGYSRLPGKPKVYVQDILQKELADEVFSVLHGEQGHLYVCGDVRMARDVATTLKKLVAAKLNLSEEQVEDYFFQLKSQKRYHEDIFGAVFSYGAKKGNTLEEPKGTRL

For `CN1CCCC1CCN1CCCCc2cc(NC(=N)c3cccs3)ccc21` (racemic), the IC50 (Nitric oxide synthase 1) was 1860 nM and the IC50 [1] was > 100000 nM.
In the case of `N=C(Nc1ccc2c(c1)CCCCN2C1CCNCC1)c1cccs1`, the IC50 (Nitric oxide synthase 1) is reported as 2380 nM.
Work on `N=C(Nc1ccc2c(c1)CCCCN2CCN1CCCC1)c1cccs1` yielded an IC50 (Nitric oxide synthase 1) of 160 nM, an IC50 (Nitric oxide synthase 3) of 82200 nM and an IC50 [1] of 16900 nM.
In the case of `N=C(Nc1ccc2c(c1)CCCCN2CCN1CCCCC1)c1cccs1`, the IC50 (Nitric oxide synthase 1) is reported as 1960 nM.
For `CN(C)CCN1CCCCc2cc(NC(=N)c3cccs3)ccc21.Cl.Cl`, the IC50 [1] was 1500 nM, the “inhibition (INH)” value [2] was “Not Active” and the IC50 [3] was > 100000 nM.
Work on `N=C(Nc1ccc2c(c1)CCCCN2C1CCNC1)c1cccs1` (racemic) yielded an IC50 [1] of 13500 nM.
For `CNCCN1CCCCc2cc(NC(=N)c3cccs3)ccc21`, the IC50 (Nitric oxide synthase 1) was 100 nM and the IC50 [1] was > 100000 nM.
`CN1CCC(N2CCCCc3cc(NC(=N)c4cccs4)ccc32)C1` (racemic) was tested, and the IC50 [1] was > 100000 nM.
